Experimental data: ChEMBL document CHEMBL1147371, “Les Chimanines, Nouvelles Quinoleines Substituees en 2, Isolees d'Une Plante Bolivienne Antiparasitaire: Galipea longiflora” (1993)
Values after ≈ are worked out from the molar mass of the structure shown.

Assays:
Trypanosoma cruzi = test: Antitrypanosomal activity against Trypanosoma cruzi Tulahuen; format: functional
Leishmania braziliensis = test: Antileishmanial activity against Leishmania braziliensis 2903; format: functional

| IC90 (Trypanosoma cruzi) [µg/mL] | IC90 (Leishmania braziliensis) [µg/mL] | SMILES |
| --- | --- | --- |
| 100 (≈ 497 µM) | 100 (≈ 497 µM) | CCCc1cc(OC)c2ccccc2n1 [CHIMANINE A] |
| 100 (≈ 386 µM) | 100 (≈ 386 µM) | COc1ccc2c(OC)c3ccoc3nc2c1OC [SKIMMIANINE] |
| 50 (≈ 270 µM) | 25 (≈ 135 µM) | C[C@H]1O[C@@H]1c1ccc2ccccc2n1 (relative stereo) [CHIMANINE D] |
| 50 (≈ 192 µM) |  | O=C(Cn1ccnc1[N+](=O)[O-])NCc1ccccc1 [BENZNIDAZOLE] |
| 100 (≈ 325 µM) | 100 (≈ 325 µM) | COc1cc(CCc2ccc3c(c2)OCO3)nc2ccccc12 [CUSPARINE] |
| 100 (≈ 361 µM) | 100 (≈ 361 µM) | c1ccc2nc(CCc3ccc4c(c3)OCO4)ccc2c1 |
|  | 1 (≈ 2.94 µM) | N=C(N)c1ccc(OCCCCCOc2ccc(C(=N)N)cc2)cc1 [PENTAMIDINE] |
| 100 (≈ 487 µM) | 100 (≈ 487 µM) | c1ccc(-c2ccc3ccccc3n2)cc1 [2-PHENYLQUINOLINE] |
| 100 (≈ 425 µM) | 50 (≈ 213 µM) | COc1cc(-c2ccccc2)nc2ccccc12 |
| 25 (≈ 87 µM) |  | CC1CS(=O)(=O)CCN1/N=C/c1ccc([N+](=O)[O-])o1 (configuration not stated) [NIFURTIMOX] |
| 25 (≈ 148 µM) | 25 (≈ 148 µM) | C/C=C/c1ccc2ccccc2n1 [CHIMANINE B] |
| 100 (≈ 436 µM) | 100 (≈ 436 µM) | CCCCCc1cc(OC)c2ccccc2n1 |
| 100 (≈ 341 µM) | 100 (≈ 341 µM) | COc1ccc(CCc2ccc3ccccc3n2)cc1OC |
| 100 (≈ 502 µM) | 100 (≈ 502 µM) | CCCCCc1ccc2ccccc2n1 |
| 50 (≈ 292 µM) | 50 (≈ 292 µM) | CCCc1ccc2ccccc2n1 |
